According to ChEMBL document CHEMBL1909046, “DrugMatrix in vitro pharmacology data”:

Target: Beta-3 adrenergic receptor (Homo sapiens, UniProt P13945)
Test: DRUGMATRIX: Adrenergic beta3 radioligand binding (ligand: [125I] Cyanopindolol)
Type: cell membranes, HEK293, Membrane
Details: Not Active = under 50% inhibition at 10 µM; read-out: IC50

Sequence of Beta-3 adrenergic receptor (P13945 whole entry): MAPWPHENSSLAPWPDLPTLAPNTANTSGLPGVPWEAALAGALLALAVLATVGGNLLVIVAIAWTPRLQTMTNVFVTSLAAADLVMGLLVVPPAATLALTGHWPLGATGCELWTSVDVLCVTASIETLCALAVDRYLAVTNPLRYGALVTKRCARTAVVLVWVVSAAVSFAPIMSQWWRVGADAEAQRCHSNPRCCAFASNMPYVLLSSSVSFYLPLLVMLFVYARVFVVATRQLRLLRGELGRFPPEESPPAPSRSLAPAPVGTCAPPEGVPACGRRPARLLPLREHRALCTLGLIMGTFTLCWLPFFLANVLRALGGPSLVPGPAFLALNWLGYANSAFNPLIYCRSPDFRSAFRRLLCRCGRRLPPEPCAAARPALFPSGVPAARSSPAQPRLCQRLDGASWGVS

**Q.** `Clc1ccc(COC(Cn2ccnc2)c2ccc(Cl)cc2Cl)c(Cl)c1` (stereo not given) [MICONAZOLE] was tested. Which IC50 did it give?
**A.** 5.48 µM

Same assay, conditions: Not Active = under 50% inhibition at 10 µM; read-out: Ki

**Q.** For `Clc1ccc(COC(Cn2ccnc2)c2ccc(Cl)cc2Cl)c(Cl)c1` (stereo not given) [MICONAZOLE], which Ki is on record?
**A.** 4.11 µM

Same assay, conditions: hek293; Not Active = under 50% inhibition at 10 µM

**Q.** Which IC50 does the source give for `CCCCC(=O)N(Cc1ccc(-c2ccccc2-c2nnn[nH]2)cc1)[C@H](C(=O)O)C(C)C` here?
**A.** Not Active

**Q.** For `O=C(O)COc1ccc(C(=O)c2cccs2)c(Cl)c1Cl`, which IC50 is on record?
**A.** Not Active

**Q.** `CN1[C@@H]2CC[C@H]1C[C@@H](OC(c1ccccc1)c1ccccc1)C2` [BENZTROPINE] was tested. Which IC50 did it give?
**A.** Not Active

**Q.** How did the IC50 turn out when `C[C@@](Cc1ccc(O)c(O)c1)(NN)C(=O)O.O` [CARBIDOPA] was run?
**A.** Not Active

**Q.** With `CN1CCN(C2=Nc3cc(Cl)ccc3Nc3ccccc32)CC1` [CLOZAPINE] as the compound, how does the IC50 read?
**A.** Not Active

**Q.** `CC(C)NC[C@@H](O)COc1cccc2ccccc12` [DEXPROPRANOLOL] was tested. Which IC50 did it give?
**A.** Not Active

Target: Aldo-keto reductase family 1 member B1 (Rattus norvegicus, UniProt P07943);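 also: inhibition of aldose reductase enzyme activity, measured with DL-glyceraldehyde as the substrate; in other assays of this panel Not Active means under 50% inhibition at 10 µM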
Test: biochemical
Type: tissue-based, Lens of camera-type eye
Details: not given

**Q.** `CCCCC(=O)N(Cc1ccc(-c2ccccc2-c2nnn[nH]2)cc1)[C@H](C(=O)O)C(C)C` was tested. Which IC50 did it give?
**A.** Not Active

**Q.** With `CN1[C@@H]2CC[C@H]1C[C@@H](OC(c1ccccc1)c1ccccc1)C2` [BENZTROPINE] as the compound, how does the IC50 read?
**A.** Not Active

**Q.** How did the IC50 turn out when `C[C@@](Cc1ccc(O)c(O)c1)(NN)C(=O)O.O` [CARBIDOPA] was run?
**A.** Not Active

**Q.** `CN1CCN(C2=Nc3cc(Cl)ccc3Nc3ccccc32)CC1` [CLOZAPINE] was tested. Which IC50 did it give?
**A.** Not Active

**Q.** `CC(C)NC[C@@H](O)COc1cccc2ccccc12` [DEXPROPRANOLOL] was tested. Which IC50 did it give?
**A.** Not Active

**Q.** For `Clc1ccc(COC(Cn2ccnc2)c2ccc(Cl)cc2Cl)c(Cl)c1` (stereo not given) [MICONAZOLE], which IC50 is on record?
**A.** Not Active

Same assay, conditions: read-out: IC50

**Q.** For `O=C(O)COc1ccc(C(=O)c2cccs2)c(Cl)c1Cl`, which IC50 is on record?
**A.** 3.21 µM

Target: Vascular endothelial growth factor receptor 1 (Homo sapiens, UniProt P17948); also: in other assays of this panel Not Active means under 50% inhibition at 10 µM
Sequence (P17948 whole entry): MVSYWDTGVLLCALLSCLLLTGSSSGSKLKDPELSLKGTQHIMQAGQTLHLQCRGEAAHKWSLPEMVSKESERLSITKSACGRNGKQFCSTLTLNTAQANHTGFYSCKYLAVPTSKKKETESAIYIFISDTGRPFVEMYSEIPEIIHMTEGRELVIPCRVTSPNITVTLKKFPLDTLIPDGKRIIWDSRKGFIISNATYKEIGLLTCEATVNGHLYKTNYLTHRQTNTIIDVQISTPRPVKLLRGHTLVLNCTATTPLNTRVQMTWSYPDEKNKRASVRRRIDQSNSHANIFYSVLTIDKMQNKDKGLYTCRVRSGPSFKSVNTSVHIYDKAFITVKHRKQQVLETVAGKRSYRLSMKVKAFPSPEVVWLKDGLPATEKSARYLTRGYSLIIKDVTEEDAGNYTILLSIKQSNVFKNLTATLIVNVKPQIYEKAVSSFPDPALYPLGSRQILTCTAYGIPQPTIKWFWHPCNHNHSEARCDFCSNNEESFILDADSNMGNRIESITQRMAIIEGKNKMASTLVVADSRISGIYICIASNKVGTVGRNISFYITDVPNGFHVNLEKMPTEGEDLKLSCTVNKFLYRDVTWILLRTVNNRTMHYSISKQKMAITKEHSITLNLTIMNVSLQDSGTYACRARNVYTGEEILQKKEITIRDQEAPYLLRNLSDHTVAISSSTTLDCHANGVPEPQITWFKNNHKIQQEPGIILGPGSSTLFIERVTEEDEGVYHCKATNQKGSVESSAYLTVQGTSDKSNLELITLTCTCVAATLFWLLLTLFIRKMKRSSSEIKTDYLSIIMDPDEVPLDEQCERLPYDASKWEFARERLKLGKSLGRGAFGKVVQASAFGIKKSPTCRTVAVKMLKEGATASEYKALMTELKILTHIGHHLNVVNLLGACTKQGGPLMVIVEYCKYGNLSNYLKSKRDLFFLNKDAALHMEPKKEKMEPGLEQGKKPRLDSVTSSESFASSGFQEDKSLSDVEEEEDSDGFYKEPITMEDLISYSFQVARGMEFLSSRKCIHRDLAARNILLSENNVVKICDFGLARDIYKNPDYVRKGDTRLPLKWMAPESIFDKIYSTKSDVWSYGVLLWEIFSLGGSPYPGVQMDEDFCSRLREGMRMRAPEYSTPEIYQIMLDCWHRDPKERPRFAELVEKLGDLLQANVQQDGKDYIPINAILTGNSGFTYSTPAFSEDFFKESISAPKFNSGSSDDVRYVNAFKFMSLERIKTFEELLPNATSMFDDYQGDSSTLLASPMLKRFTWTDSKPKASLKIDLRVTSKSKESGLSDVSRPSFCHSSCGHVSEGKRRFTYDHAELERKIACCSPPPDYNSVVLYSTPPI
Test: not given
Type: cell-based
Details: huvec

**Q.** `CCCCC(=O)N(Cc1ccc(-c2ccccc2-c2nnn[nH]2)cc1)[C@H](C(=O)O)C(C)C` was tested. Which IC50 did it give?
**A.** Not Active

**Q.** With `O=C(O)COc1ccc(C(=O)c2cccs2)c(Cl)c1Cl` as the compound, how does the IC50 read?
**A.** Not Active

**Q.** With `CN1[C@@H]2CC[C@H]1C[C@@H](OC(c1ccccc1)c1ccccc1)C2` [BENZTROPINE] as the compound, how does the IC50 read?
**A.** Not Active

**Q.** How did the IC50 turn out when `C[C@@](Cc1ccc(O)c(O)c1)(NN)C(=O)O.O` [CARBIDOPA] was run?
**A.** Not Active

**Q.** With `CN1CCN(C2=Nc3cc(Cl)ccc3Nc3ccccc32)CC1` [CLOZAPINE] as the compound, how does the IC50 read?
**A.** Not Active

**Q.** How did the IC50 turn out when `CC(C)NC[C@@H](O)COc1cccc2ccccc12` [DEXPROPRANOLOL] was run?
**A.** Not Active

**Q.** Which IC50 does the source give for `Clc1ccc(COC(Cn2ccnc2)c2ccc(Cl)cc2Cl)c(Cl)c1` (stereo not given) [MICONAZOLE] here?
**A.** Not Active

Target: T1, C-C chemokine receptor type 4 (Homo sapiens, UniProt P51679); also: in other assays of this panel Not Active means under 50% inhibition at 10 µM
T1 sequence (P51679 whole entry): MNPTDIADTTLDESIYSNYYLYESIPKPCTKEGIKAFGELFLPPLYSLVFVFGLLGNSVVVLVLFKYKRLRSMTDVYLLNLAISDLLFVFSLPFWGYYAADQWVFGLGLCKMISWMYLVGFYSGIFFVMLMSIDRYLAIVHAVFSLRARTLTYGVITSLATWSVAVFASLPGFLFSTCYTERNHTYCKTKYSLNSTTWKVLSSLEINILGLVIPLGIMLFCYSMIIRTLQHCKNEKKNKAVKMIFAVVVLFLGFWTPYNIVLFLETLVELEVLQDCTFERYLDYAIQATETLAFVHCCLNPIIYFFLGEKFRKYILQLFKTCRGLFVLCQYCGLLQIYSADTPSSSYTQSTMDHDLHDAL
Test: not given
Type: cell membranes, Membrane
Details: chem-1

**Q.** `CCCCC(=O)N(Cc1ccc(-c2ccccc2-c2nnn[nH]2)cc1)[C@H](C(=O)O)C(C)C` was tested. Which IC50 did it give?
**A.** Not Active

**Q.** `O=C(O)COc1ccc(C(=O)c2cccs2)c(Cl)c1Cl` was tested. Which IC50 did it give?
**A.** Not Active

**Q.** Which IC50 does the source give for `CN1[C@@H]2CC[C@H]1C[C@@H](OC(c1ccccc1)c1ccccc1)C2` [BENZTROPINE] here?
**A.** Not Active

**Q.** `C[C@@](Cc1ccc(O)c(O)c1)(NN)C(=O)O.O` [CARBIDOPA] was tested. Which IC50 did it give?
**A.** Not Active

**Q.** For `CN1CCN(C2=Nc3cc(Cl)ccc3Nc3ccccc32)CC1` [CLOZAPINE], which IC50 is on record?
**A.** Not Active

**Q.** How did the IC50 turn out when `CC(C)NC[C@@H](O)COc1cccc2ccccc12` [DEXPROPRANOLOL] was run?
**A.** Not Active

**Q.** For `Clc1ccc(COC(Cn2ccnc2)c2ccc(Cl)cc2Cl)c(Cl)c1` (stereo not given) [MICONAZOLE], which IC50 is on record?
**A.** Not Active

Target: T2, Cathepsin G (Homo sapiens, UniProt P08311);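 also: inhibition of Cathepsin G enzyme activity, tested on an AMC-conjugated peptide substrate; in other assays of this panel Not Active means under 50% inhibition at 10 µM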
T2 sequence (P08311 whole entry): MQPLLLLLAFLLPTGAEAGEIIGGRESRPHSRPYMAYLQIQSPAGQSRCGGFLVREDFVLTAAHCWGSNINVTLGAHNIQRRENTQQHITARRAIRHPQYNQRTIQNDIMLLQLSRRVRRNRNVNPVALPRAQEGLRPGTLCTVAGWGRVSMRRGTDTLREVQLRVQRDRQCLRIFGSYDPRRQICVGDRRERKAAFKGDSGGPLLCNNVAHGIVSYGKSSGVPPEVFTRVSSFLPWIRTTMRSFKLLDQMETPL
Test: not given
Type: tissue-based
Details: neutrophil

**Q.** With `CCCCC(=O)N(Cc1ccc(-c2ccccc2-c2nnn[nH]2)cc1)[C@H](C(=O)O)C(C)C` as the compound, how does the IC50 read?
**A.** Not Active

**Q.** `O=C(O)COc1ccc(C(=O)c2cccs2)c(Cl)c1Cl` was tested. Which IC50 did it give?
**A.** Not Active

**Q.** With `CN1[C@@H]2CC[C@H]1C[C@@H](OC(c1ccccc1)c1ccccc1)C2` [BENZTROPINE] as the compound, how does the IC50 read?
**A.** Not Active

**Q.** For `C[C@@](Cc1ccc(O)c(O)c1)(NN)C(=O)O.O` [CARBIDOPA], which IC50 is on record?
**A.** Not Active

**Q.** How did the IC50 turn out when `CN1CCN(C2=Nc3cc(Cl)ccc3Nc3ccccc32)CC1` [CLOZAPINE] was run?
**A.** Not Active

**Q.** How did the IC50 turn out when `CC(C)NC[C@@H](O)COc1cccc2ccccc12` [DEXPROPRANOLOL] was run?
**A.** Not Active

**Q.** For `Clc1ccc(COC(Cn2ccnc2)c2ccc(Cl)cc2Cl)c(Cl)c1` (stereo not given) [MICONAZOLE], which IC50 is on record?
**A.** Not Active

Target: Protein phosphatase 3 catalytic subunit alpha (Homo sapiens, UniProt Q08209)
Test: not given
Parameters: species or system Escherichia coli
Details: not given

**Q.** `CCCCC(=O)N(Cc1ccc(-c2ccccc2-c2nnn[nH]2)cc1)[C@H](C(=O)O)C(C)C` was tested. Which IC50 did it give?
**A.** Not Active

**Q.** With `O=C(O)COc1ccc(C(=O)c2cccs2)c(Cl)c1Cl` as the compound, how does the IC50 read?
**A.** Not Active

**Q.** `CN1[C@@H]2CC[C@H]1C[C@@H](OC(c1ccccc1)c1ccccc1)C2` [BENZTROPINE] was tested. Which IC50 did it give?
**A.** Not Active

**Q.** Which IC50 does the source give for `C[C@@](Cc1ccc(O)c(O)c1)(NN)C(=O)O.O` [CARBIDOPA] here?
**A.** Not Active

**Q.** `CN1CCN(C2=Nc3cc(Cl)ccc3Nc3ccccc32)CC1` [CLOZAPINE] was tested. Which IC50 did it give?
**A.** Not Active

**Q.** Which IC50 does the source give for `CC(C)NC[C@@H](O)COc1cccc2ccccc12` [DEXPROPRANOLOL] here?
**A.** Not Active

**Q.** `Clc1ccc(COC(Cn2ccnc2)c2ccc(Cl)cc2Cl)c(Cl)c1` (stereo not given) [MICONAZOLE] was tested. Which IC50 did it give?
**A.** Not Active

Target: Tyrosine-protein kinase Fyn (Homo sapiens, UniProt P06241)
Sequence (P06241 whole entry): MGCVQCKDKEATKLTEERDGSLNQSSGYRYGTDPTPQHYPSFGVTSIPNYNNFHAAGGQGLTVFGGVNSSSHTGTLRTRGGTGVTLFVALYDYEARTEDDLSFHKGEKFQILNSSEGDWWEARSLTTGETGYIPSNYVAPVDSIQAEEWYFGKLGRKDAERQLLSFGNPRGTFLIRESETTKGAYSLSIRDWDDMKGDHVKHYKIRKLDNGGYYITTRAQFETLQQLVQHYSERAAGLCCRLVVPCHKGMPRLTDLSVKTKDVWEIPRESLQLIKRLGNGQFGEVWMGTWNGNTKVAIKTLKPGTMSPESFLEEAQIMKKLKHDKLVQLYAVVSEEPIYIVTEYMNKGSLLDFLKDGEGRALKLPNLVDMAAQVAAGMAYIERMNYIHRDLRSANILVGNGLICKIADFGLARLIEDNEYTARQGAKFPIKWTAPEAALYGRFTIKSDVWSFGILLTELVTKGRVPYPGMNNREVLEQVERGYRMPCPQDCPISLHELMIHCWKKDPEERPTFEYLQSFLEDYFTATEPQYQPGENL
Test: biochemical
Type: cell-based, Insect cells
Details: insect cells

**Q.** Which IC50 does the source give for `CCCCC(=O)N(Cc1ccc(-c2ccccc2-c2nnn[nH]2)cc1)[C@H](C(=O)O)C(C)C` here?
**A.** Not Active

**Q.** For `O=C(O)COc1ccc(C(=O)c2cccs2)c(Cl)c1Cl`, which IC50 is on record?
**A.** Not Active

**Q.** Which IC50 does the source give for `CN1[C@@H]2CC[C@H]1C[C@@H](OC(c1ccccc1)c1ccccc1)C2` [BENZTROPINE] here?
**A.** Not Active

**Q.** `CN1CCN(C2=Nc3cc(Cl)ccc3Nc3ccccc32)CC1` [CLOZAPINE] was tested. Which IC50 did it give?
**A.** Not Active

**Q.** How did the IC50 turn out when `CC(C)NC[C@@H](O)COc1cccc2ccccc12` [DEXPROPRANOLOL] was run?
**A.** Not Active

Same assay, conditions: read-out: IC50

**Q.** With `C[C@@](Cc1ccc(O)c(O)c1)(NN)C(=O)O.O` [CARBIDOPA] as the compound, how does the IC50 read?
**A.** 3.73 µM

**Q.** For `Clc1ccc(COC(Cn2ccnc2)c2ccc(Cl)cc2Cl)c(Cl)c1` (stereo not given) [MICONAZOLE], which IC50 is on record?
**A.** 4.16 µM
